In publication PMC12866179, “Oxidized MIF is an Alzheimer’s disease drug target relaying external risk factors to tau pathology” (Cell Reports Medicine, 2025):

Key:
[1] = test system: HSV-1; test: HSV-1 infection of human brain organoids; format: cell-based, HSV-1 KOS strain; settings: 250 nM PAV-174
Experimental: (§1) 60 days old human brain organoids with an estimated cell number of 2.5x10^6 were preincubated with DMSO or 250 nM of PAV-174 for 1h (final DMSO concentration was 0.5%). Then organoids were infected with HSV-1 at an MOI of 0.1 or 1.0. At the next day the medium was renewed and new compound was added. After another 24h, the organoids were washed two times with PBS and then either fixed with 4% PFA at 4°C overnight (for immunocytochemistry and TUNEL assay) or lysed with cold RIPA buffer (50 mM Tris-HCL, pH 7.4, 1% NP-40, 0.5% Na-deoxycholate, 0.1% SDS, 150 mM NaCl, 5 mM EDTA, 50 mM NaF) plus 1X Protease inhibitor cocktail (Roche) and phosphatase inhibitor cocktail (Sigma) followed by 4x sonication for 30s using a Misonix ultrasonic water bath at 100% amplitude. Protein concentration was determined with the DC Protein Assay (Bio-Rad). For immunocytochemistry and TUNEL assay fixed organoids were embedded in paraffin and section of 5 μm were prepared.
For immunocytochemistry of organoid sections, frozen slides were thawed and kept on RT until they were dry. Slides were washed with PBS and incubated for 5 min. Then the sections were incubated with 30 mM glycine in PBS for 5 min and permeabilized with PBS/0.5% TX100/0.1% Tween 20 for 10 min. To equally distribute the solutions a parafilm layer was placed on top. […]

[2] = test system: human brain organoids; test: TUNEL assay in human brain organoids; format: cell-based
Experimental: as §1
Apoptotic cells in sections of brain organoids were detected by TdT-mediated dUTP-biotin nick end labeling (TUNEL) using the DeadEnd Fluorometric TUNEL System (Promega) according to the manufacturers recommendations. At least three 5-μm sections of the brain organoids were analyzed by taking at least 10 images of each organoid. Dead cells were counted using Fiji/ImageJ (NIH).

[3] = design: species or system SD rats; settings: rat, in vivo, ip, 5 mg/kg
Experimental: Figure S5. PAV-17 4 decreases ta u phosphorylation and aggr e gat ion in vi v o. Rel a ted to […]
(A) MTD (Maximum Tol erated Dose) assessment of PAV com pounds in BALB/c mice. BALB/c mice we re dosed through int ra pe rit o ne al (IP ) ro ute at di ff e ren t doses as pe r bo dy we igh t of an ima ls an d mice we re obser ved at di ff e ren t time interval for toxic signs till 48 h, PD (Post dose) . MTD at wa s declared at NOAEL (No-obser ved-adver se-effect level) conc. of PAV […]
(B) PAV-61 7 dose- an d MIF-de pe nd en t ly reduces tau phosphorylati on (A T8) . SH-SY5Y-P301S-control or -MIF-knockdown cel ls we re treated with the indicated concentrations of PAV- […]
cel ls. The di ag ram s show the signals of AT8 normalized to total tau (HT7 ) from six (n =6) in de pe nd en t exper iments. One-wa y ANOVA (Sidak´s post-hoc)
(C) Pharmacokinetic assessment of PAV-61 7 in Sprague Da wley ra ts (S D). Ma le SD ra ts (n=4) we re dosed via three ro utes na me ly intravenous (IV )- 1 mg/kg, (IP )- 5 mg/kg an d per ora l (P O)- 5 mg/kg. Plasma concentration wa s anal yzed at di ff e ren t time intervals. Pharmacokinetic pa ra met e rs we re de t erm ine d usi ng Win No nlin . Cma x (p ea k pl asma concentration) achieved through IV wa s 12 8 ng / mL, IP wa s 36 2. 6 ng / mL an d PO wa s 15 1. 1 ng / mL at Tmax (time of pe ak concentration obser ved) 1 h, 0. 5 h an d 4 h respectively. […]

For `CCc1cc(N2CCCC2)cc2[s+]c3cc(N4CCCC4)cc(C)c3nc12.[I-]` [PAV-174, 3,7-Di(pyrrolidine-1-yl) 1-ethyl-9-methyl-phenothiazin-5-ium iodide], the “HSV-1 infection of human brain organoids (HSV-1-gC staining)” value [1] was “completely abolished”, the “induction of apoptosis in human brain organoids” value [2] was “no induction of apoptosis” and the “cell toxicity mediated by HSV-1 infection (TUNEL-positive cells)” value ([2]; HSV-1-infected brain organoids) was “lowered cell toxicity mediated by HSV-1 infection”.
With `[I-].c1cc2nc3ccc(N4CCCC4)cc3[s+]c2cc1N1CCCC1` [PAV-617, 3,7-Di(pyrrolidine-1-yl)phenothiazine-5-ium iodide] the tissue penetration [3] was “good tissue penetration, including the brain”.
